In patent publication EP2241565A1, “Aurora kinase inhibitors compounds” (Universität Leipzig, priority 2009, dated 2010):
“Also recorded” adds a separate entry of the source.

Columns and labels:
[1] = test system: histone H3 phosphorylation on Ser 10; experiment: Western Blot analysis of histone H3 phosphorylation in mitotic cells; assay type: cell-based, human; details: mitotic HeLa cells synchronized with nocodazole, treated 20 h, any of the concentrations tested
Protocol: For Western Blot analysis of HH3 phosphorylation levels in mitosis HeLa cells were arrested with 2 mM thymidine for 18 h, released into fresh medium for 6 h, and blocked with 2 µM nocodazole for 16 h. DMSO or the different compounds were added 1 h after thymidine release. Mitotic cells were shaken off and lysed in 50 mM Tris pH 6,8- 2% SDS. Samples were sonicated and boiled. 30 µg protein extract (as determined by Bradford assay, Bio-Rad protein assay) was loaded on SDS-PAGE, transferred to a nitrocellulose membrane and blotted with anti-phospho HH3 (Upstate), anti-Aurora A and anti-tubulin antibodies (Sigma, DM1A).

[2] = biological target: T1, Aurora A (Homo sapiens, UniProt O14965); experiment: In vitro Aurora A kinase assay (Invitrogen Z'-lyte kinase assay kit, Ser/Thr 1 peptide); assay type: biochemical; details: for IC50: 10 µM ATP; for selectivity for Aurora A against other kinases: versus Aurora B and receptor-tyrosine kinases
T1 construct: made in house
T1 sequence (O14965 1-403): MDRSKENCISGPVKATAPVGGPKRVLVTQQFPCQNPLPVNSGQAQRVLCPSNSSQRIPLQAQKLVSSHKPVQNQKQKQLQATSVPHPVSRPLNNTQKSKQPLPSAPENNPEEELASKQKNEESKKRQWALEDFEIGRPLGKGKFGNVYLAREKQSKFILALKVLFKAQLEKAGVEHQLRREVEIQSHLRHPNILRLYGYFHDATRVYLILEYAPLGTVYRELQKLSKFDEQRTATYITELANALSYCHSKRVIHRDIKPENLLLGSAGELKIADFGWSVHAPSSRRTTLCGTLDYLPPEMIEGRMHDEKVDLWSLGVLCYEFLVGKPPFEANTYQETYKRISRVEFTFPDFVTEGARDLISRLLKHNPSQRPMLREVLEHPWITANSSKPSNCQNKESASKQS
Protocol: The IC50 for the different compounds was determined with Invitrogen Z'-Iyte kinase assay kit Ser/Thr 1 peptide PV3174 following the manufacturer's instructions. […] This amount was then used in subsequent assay steps.
Compounds were prepared in 384-well plates (Greiner 384-well PP 781280) at a highest concentration of 400 µM (in 4% DMSO) and then serially diluted in 2-fold steps by hand, keeping the DMSO percentage constant. 1.25 µl of compound solution was subsequently transferred 1:1 to a 384-well assay plate (Greiner 384-well ProxiPlate Plus F 6008260) for screening at a highest concentration in the final assay of 100 µM (in 1% DMSO).
In the first step, 2.5 µl of a solution containing 8 nM Aurora A (batch S74, prepared in-house at EMBL) or 40 nM Aurora B (Invitrogen PV3970) and 4 µM Ser/Thr peptide 1 (Invitrogen PV3174) was added to each well, followed by 1.25 µl of the respective ATP solution (40 µM for Aurora A, 256 µM for Aurora B). The final 5 µl reaction volume consisted of 4 nM Aurora A or 20 nM Aurora B, 2 µM Ser/Thr 1 peptide, 50 mM HEPES pH 7.5, 0.01 % BRIJ-35, 10 mM MgCl2, and 1 mM EGTA, in addition to 10 µM or 64 µM ATP (for Aurora A and Aurora B, respectively). […] The plates were then spun down at 1000 rpm for 1 min, followed by incubation at rt for 1 h. In the second step, 2.5 µl of Development solution (Development A reagent diluted 1:2048 in development buffer) was added to each well, followed again by centrifugation at 1000 rpm for 1 min and subsequent incubation at rt for 1 h. In the final step, the reaction in each well was stopped by the addition of 2.5 µl Stop reagent, followed by a brief centrifugation step and immediate readout (PerkinElmer EnVision HTS; ex. 405 nm, coumarin em. 450 nm, fluorescein em. 535 nm).
Percentage phosphorylation was calculated using 0% and 100% phosphorylation controls. The former wells contained 1.25 µl DMSO (4%), 1.25 µl buffer (as above), and 2.5 µl of a 4 µM Ser/Thr 1 peptide solution (without kinase), while in the latter the peptide solution was replaced by a 4 µM solution of a supplied phosphopeptide. The action of the development reagent was assessed using protease controls (standard wells with and without development solution added in step two).
The [coumarin emission/fluorescein emission] ratio was used together with the min. and max. signals at the two wavelengths to yield percentage phosphorylation, from which inhibition was derived (according to manufacturer's instructions). Calculated inhibition values were then fitted to 11-point variable slope sigmoidal dose-response curves using GraphPad Prism software, yielding the compound IC50s.

[3] = test system: HeLa cells; experiment: Flow cytometry (FACS) DNA content / cell cycle profile; assay type: cell-based, human; details: 24 h; for % of cells 2<n<4 / % of cells 2n / % of cells 4n / % of cells <2n / % of cells >4n: HeLa cells; for effect on DNA content / distribution of cells in the cell cycle stages: ZM1 2 µM, (A) and (C) increasing concentrations
Protocol: Adherent HeLa cells were routinely passaged and maintained in D-MEM medium supplemented with 10% Fetal Bovine Serum (FBS), 1% Penicillin/Streptomycin and 2 mM L-Glutamine. The cells were cultured at 37 °C; 5% CO2. hTERT-RPE1 cells were grown in DMEM with 10% fetal bovine serum. HeLa cells constitutively expressing green fluorescent protein-conjugated Histone H2B and mRed fluorescent protein-conjugated α-tubulin were maintained in D-MEM medium supplemented with 10% Fetal Bovine Serum (FBS), 1% Penicillin/Streptomycin, 2 mM L-Glutamine and 0.5 µg/mL Puromycin and cultured at 37 °C; 5% CO2.
After treatment, FACS analysis was performed on a BD FACSCanto™ Flow Cytometer (Cat.No. 335860 BD Biosciences) using FACSDiva Software. Cells were trypsinized, washed wish PBS and fixed overnight in EtOH (-20°C). After washing with PBS, cells were stained with a propidium iodide solution (PI; 15 µg/mL)/ RNase A (30 µg/mL) for 30 min at 37 °C. RNase was added to avoid signals caused by the binding of PI to RNA.
We first examined by flow cytometry the cell cycle profiles of HeLa cells incubated in medium containing increasing concentrations of any of (A) or (C) for 24 h.

SMILES | HH3-Ser10 phosphorylation [1] | IC50 [2] | selectivity for Aurora A against other kinases [2] | % of cells 2<n<4 ([3]; 20µM) | % of cells 2n ([3]; 20µM) | % of cells 4n ([3]; 20µM) | % of cells <2n ([3]; 20µM) | % of cells >4n ([3]; 20µM) | % of cells 2<n<4 ([3]; 40µM) | % of cells 2n ([3]; 40µM) | % of cells 4n ([3]; 40µM) | % of cells <2n ([3]; 40µM) | % of cells >4n ([3]; 40µM) | % of cells 2<n<4 ([3]; 100µM) | % of cells 2n ([3]; 100µM) | % of cells 4n ([3]; 100µM) | % of cells <2n ([3]; 100µM) | % of cells >4n ([3]; 100µM) | effect on DNA content / distribution of cells in the cell cycle stages [3]
CC(C)Nc1nc(-c2ccco2)nc2ccc(/C=C/C(C)(C)O)cc12 [Compound (A), (E)-4-(2-(Furan-2-yl)-4-(isopropylamino)quinazolin-6-yl)-2-methylbut-3-en-2-ol] | no effect | 1.93 µM | selective inhibition of Aurora A | 17.6% | 58.5% | 19.2% | 4.4% | 0.7% | 17.7% | 58.5% | 19.9% | 3.8% | 3.8% | 15.5% | 48.4% | 20.8% | 13.8% | 2.1% | did not alter the distribution of cells in the different cell cycle stages
CC(C)Nc1nc(-c2ccco2)nc2ccc(C#CCO)cc12 [Compound (C), 3-(2-(Furan-2-yl)-4-(isoiproipylamino)quinazolin-6-yl)prop-2-yn-l-ol] | no effect | 2.75 µM | selective inhibition of Aurora A | 17.5% | 55.2% | 19.0% | 7.6% | 1.3% | 20.0% | 47.2% | 21.2% | 10.5% | 1.8% | 25.2% | 21.4% | 41.8% | 10.0% | 1.5% | increased amount of 4n DNA; also recorded: dose dependent increase in the proportion of cells with more than 2n DNA content
